Assay results from PubChem BioAssay AID248 (DTP/NCI, 2004).
Where “and” joins values, the source holds several entries; their conditions need not be identical. Identical values can stand only once. Toxic doses and inconclusive results are not listed. Rule as the data show it: active = T/C of 150% or more; inactive = T/C below 125%.

Tested on: L1210 leukemia ip in BDF1 mice, survival T/C
Experiment: NCI In Vivo Anticancer Drug Screen. Data for tumor model L1210 Leukemia (intraperitoneal) in B6D2F1 (BDF1) mice
Conditions: endpoint: mean survival time, higher = longer survival
In short: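 Transplantable tumor model; survival measured in treated vs vehicle control mice. Value = treated/control.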

[1] = dose: 100.0 mg/kg/injection, schedule: Q04DX003 (ip), vehicle: Klucel (hydroxypropylcellulose) (HPC)
[2] = dose: 200.0 mg/kg/injection, schedule: Q04DX003 (ip), vehicle: Klucel (hydroxypropylcellulose) (HPC)
[3] = dose: 400.0 mg/kg/injection, schedule: Q04DX003 (ip), vehicle: Klucel (hydroxypropylcellulose) (HPC)
[4] = dose: 100.0 mg/kg/injection, schedule: Q04DX003 (ip), vehicle: saline with Tween-80
[5] = dose: 200.0 mg/kg/injection, schedule: Q04DX003 (ip), vehicle: saline with Tween-80
[6] = dose: 400.0 mg/kg/injection, schedule: Q04DX003 (ip), vehicle: saline with Tween-80
[7] = dose: 100.0 mg/kg/injection, schedule: Q01DX009 (ip), vehicle: saline with Tween-80
[8] = dose: 200.0 mg/kg/injection, schedule: Q01DX009 (ip), vehicle: saline with Tween-80

Measured: T/C

Cc1ncc(CO)c(C2NOCc3ncsc32)c1O (stereo not drawn)
inactive: dose: 6.25 mg/kg/injection, schedule: Q01DX009 (ip), vehicle: saline 89 % of control | dose: 6.25 mg/kg/injection, schedule: Q04DX003 (ip), vehicle: saline 102 % of control | dose: 12.5 mg/kg/injection, schedule: Q01DX001 (ip), vehicle: saline 101 % of control | dose: 12.5 mg/kg/injection, schedule: Q01DX009 (ip), vehicle: saline 97 % of control | dose: 12.5 mg/kg/injection, schedule: Q04DX003 (ip), vehicle: saline 106 % of control | dose: 25.0 mg/kg/injection, schedule: Q01DX001 (ip), vehicle: saline 102 % of control | dose: 25.0 mg/kg/injection, schedule: Q04DX003 (ip), vehicle: saline 93 % of control

C=CCNC(=S)Nc1cc(Cl)ccc1C
inactive: dose: 100.0 mg/kg/injection, schedule: Q01DX009 (ip), vehicle: Klucel (hydroxypropylcellulose) (HPC) 90 % of control | [1] 92 % of control | dose: 200.0 mg/kg/injection, schedule: Q01DX009 (ip), vehicle: Klucel (hydroxypropylcellulose) (HPC) 86 % of control | [2] 100 % of control | [3] 95 % of control

C1=Cc2ccccc2/C1=C/c1ccc(/C=C2\C=Cc3ccccc32)cc1
inactive: [4] 92 % of control | [5] 89 % of control | [6] 89 % of control

C[N+]1(CCl)CCOCC1
inactive: dose: 1.74 mg/kg/injection, schedule: Q01DX009 (ip), vehicle: saline 104 % of control | dose: 2.6 mg/kg/injection, schedule: Q01DX009 (ip), vehicle: saline 104 % of control | dose: 4.0 mg/kg/injection, schedule: Q01DX001 (ip), vehicle: saline 105 % of control | dose: 4.0 mg/kg/injection, schedule: Q01DX009 (ip), vehicle: saline 94 % of control | dose: 4.0 mg/kg/injection, schedule: Q04DX003 (ip), vehicle: saline 100 % of control | dose: 4.0 mg/kg/injection, schedule: Q08DX002 (ip), vehicle: saline 105 % of control | dose: 6.0 mg/kg/injection, schedule: Q01DX001 (ip), vehicle: saline 102 % of control | dose: 6.0 mg/kg/injection, schedule: Q01DX009 (ip), vehicle: saline 102 % of control | dose: 6.0 mg/kg/injection, schedule: Q04DX003 (ip), vehicle: saline 98 % of control | dose: 6.0 mg/kg/injection, schedule: Q08DX002 (ip), vehicle: saline 111 % of control | dose: 9.0 mg/kg/injection, schedule: Q01DX009 (ip), vehicle: saline 100 % of control | dose: 10.0 mg/kg/injection, schedule: Q01DX001 (ip), vehicle: saline 102 % of control | dose: 10.0 mg/kg/injection, schedule: Q04DX003 (ip), vehicle: saline 105 % of control | dose: 10.0 mg/kg/injection, schedule: Q08DX002 (ip), vehicle: saline 104 % of control | dose: 14.0 mg/kg/injection, schedule: Q01DX001 (ip), vehicle: saline 104 % of control | dose: 14.0 mg/kg/injection, schedule: Q04DX003 (ip), vehicle: saline 102 % of control | dose: 14.0 mg/kg/injection, schedule: Q08DX002 (ip), vehicle: saline 107 % of control | dose: 21.0 mg/kg/injection, schedule: Q01DX001 (ip), vehicle: saline 102 % of control | dose: 21.0 mg/kg/injection, schedule: Q04DX003 (ip), vehicle: saline 100 % of control | dose: 21.0 mg/kg/injection, schedule: Q08DX002 (ip), vehicle: saline 100 % of control | dose: 75.0 mg/kg/injection, schedule: Q01DX001 (ip), vehicle: saline 98 % of control | dose: 150.0 mg/kg/injection, schedule: Q01DX001 (ip), vehicle: saline 107 % of control

O=C(Nc1ccc(NC(=O)Nc2cc(C(=O)Nc3ccc(C4=NCCN4)cc3)ccc2C(=O)Nc2ccc(C3=NCCN3)cc2)cc1)Nc1cc(C(=O)Nc2ccc(C3=NCCN3)cc2)ccc1C(=O)Nc1ccc(C2=NCCN2)cc1
inactive: dose: 100.0 mg/kg/injection, schedule: Q01DX Z (oral), vehicle: saline 93 % of control | dose: 120.0 mg/kg/injection, schedule: Q01DX Z (ip), vehicle: saline 120 % of control | dose: 200.0 mg/kg/injection, schedule: Q01DX Z (oral), vehicle: saline 98 % of control | dose: 400.0 mg/kg/injection, schedule: Q01DX Z (oral), vehicle: saline 101 % of control

CC(=O)OCC1C2CCC(C2)C1C (stereo not drawn)
inactive: dose: 75.0 mg/kg/injection, schedule: Q01DX001 (ip), vehicle: acetone 95 % of control | dose: 150.0 mg/kg/injection, schedule: Q01DX001 (ip), vehicle: acetone 101 % of control | dose: 300.0 mg/kg/injection, schedule: Q01DX001 (ip), vehicle: acetone 114 % of control

O=c1[n-]cc(F)c(=O)[nH]1.O=c1[n-]cc(F)c(=O)[nH]1.[NH2-].[NH2-].[Pt+4]
inactive: dose: 6.25 mg/kg/injection, schedule: Q03HX024 (ip), vehicle: saline with Tween-80 97 % of control | dose: 12.5 mg/kg/injection, schedule: Q03HX024 (ip), vehicle: saline with Tween-80 101 % of control | dose: 25.0 mg/kg/injection, schedule: Q03HX024 (ip), vehicle: saline with Tween-80 99 % of control | dose: 50.0 mg/kg/injection, schedule: Q03HX024 (ip), vehicle: saline with Tween-80 118 % of control | dose: 100.0 mg/kg/injection, schedule: Q01DX009 (ip), vehicle: saline 115 % of control and 105 % of control | dose: 100.0 mg/kg/injection, schedule: Q04DX003 (ip), vehicle: saline 108 % of control and 92 % of control and 97 % of control | dose: 200.0 mg/kg/injection, schedule: Q01DX009 (ip), vehicle: saline 124 % of control and 114 % of control | dose: 200.0 mg/kg/injection, schedule: Q04DX003 (ip), vehicle: saline 93 % of control and 113 % of control and 97 % of control | dose: 400.0 mg/kg/injection, schedule: Q01DX009 (ip), vehicle: saline 109 % of control | dose: 400.0 mg/kg/injection, schedule: Q04DX003 (ip), vehicle: saline 120 % of control and 124 % of control and 101 % of control

O=C(O)CCSc1ccccc1
inactive: dose: 40.0 mg/kg/injection, schedule: Q01DX009 (ip), vehicle: saline with Tween-80 96 % of control | dose: 75.0 mg/kg/injection, schedule: Q01DX009 (ip), vehicle: saline with Tween-80 88 % of control | dose: 75.0 mg/kg/injection, schedule: Q04DX003 (ip), vehicle: saline 96 % of control | dose: 150.0 mg/kg/injection, schedule: Q01DX009 (ip), vehicle: saline with Tween-80 101 % of control

C[C@]12CC[C@H](O)C[C@@H]1CC[C@@H]1[C@@H]2C(=O)C[C@]2(C)C3=CC(=O)O[C@H]3C[C@@H]12
inactive: dose: 5.0 mg/kg/injection, schedule: Q01DX Z (sc), vehicle: steriod suspending solution 94 % of control and 108 % of control | dose: 10.0 mg/kg/injection, schedule: Q01DX Z (sc), vehicle: steriod suspending solution 97 % of control and 100 % of control | dose: 20.0 mg/kg/injection, schedule: Q01DX Z (sc), vehicle: steriod suspending solution 94 % of control and 102 % of control | dose: 40.0 mg/kg/injection, schedule: Q01DX Z (sc), vehicle: steriod suspending solution 94 % of control and 96 % of control and 100 % of control | dose: 80.0 mg/kg/injection, schedule: Q01DX Z (sc), vehicle: steriod suspending solution 104 % of control | dose: 160.0 mg/kg/injection, schedule: Q01DX Z (sc), vehicle: steriod suspending solution 95 % of control | dose: 320.0 mg/kg/injection, schedule: Q01DX Z (sc), vehicle: steriod suspending solution 95 % of control | dose: 640.0 mg/kg/injection, schedule: Q01DX015 (sc), vehicle: steriod suspending solution 100 % of control | dose: 1280.0 mg/kg/injection, schedule: Q01DX015 (sc), vehicle: steriod suspending solution 96 % of control

CCOC(=O)c1[nH]c2ccsc2c1CN(C)C
inactive: [1] 102 % of control | [2] 91 % of control | [3] 97 % of control

C=C1N(c2ccc(OC)c(OC)c2)C(=O)OC12CCCCC2
inactive: dose: 25.0 mg/kg/injection, schedule: Q04DX003 (ip), vehicle: Klucel (hydroxypropylcellulose) (HPC) 93 % of control | dose: 50.0 mg/kg/injection, schedule: Q04DX003 (ip), vehicle: Klucel (hydroxypropylcellulose) (HPC) 93 % of control | [1] 102 % of control | [2] 96 % of control

Oc1ccccc1C=NCCN=Cc1ccccc1O
inactive: [7] 90 % of control | [8] 92 % of control | dose: 400.0 mg/kg/injection, schedule: Q01DX009 (ip), vehicle: saline with Tween-80 92 % of control

CCCCOP(OCCCC)Oc1ccccc1
inactive: dose: 50.0 mg/kg/injection, schedule: Q01DX009 (ip), vehicle: saline with Tween-80 89 % of control | [7] 89 % of control | [4] 97 % of control | [8] 100 % of control | [5] 96 % of control | [6] 103 % of control
